Like-named read-outs stand apart in the source and are kept apart here.
Assays:
[1] = biological target: T1, Lm TS (Leishmania major, UniProt P07382); assay: biochemical; assay type: biochemical
T1 construct: made in house
Procedure: (§1) The compounds of the invention were tested against the following enzyme library: TcPTR1, LmPTR1, LmDHFR, LcTS, EcTS, CnTS, hTS, DHFR. The proteins were all purified following the known procedures (ref). The enzymes were purified through chromatographic methods that usually require a prepurification step using a ion exchange resin, than the eluted active fractions were pooled and a second purification step follows were a hydrophobic resin and sometimes a gel filtration resin is used as the final step. The protein is characterized using Mass Spectrometry and Specific Activity and concentration is detected. Moreover Km for the substrates is useful to set up the inhibition experiments. In general the protein is stored at −80° C. and defrozen in small quantities when necessary.

[2] = biological target: T2, h DHFR (Homo sapiens, UniProt P00374); assay: DHFR enzyme inhibition (standard DHFR assay), human DHFR; assay type: biochemical
T2 construct: made in house
T2 sequence (P00374 1-187): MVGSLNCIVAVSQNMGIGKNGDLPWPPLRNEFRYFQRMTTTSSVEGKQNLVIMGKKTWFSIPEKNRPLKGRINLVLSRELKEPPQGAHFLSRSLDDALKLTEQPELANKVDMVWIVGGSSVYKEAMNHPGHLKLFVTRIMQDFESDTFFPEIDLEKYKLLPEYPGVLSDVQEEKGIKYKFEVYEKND
Procedure: as §1

[3] = biological target: T3, LmDHFR (Leishmania major, UniProt P07382); assay: biochemical; conditions: NI means no inhibition at 190 μM; read-out: DHFR Lm Ki
T3 construct: made in house
T3 sequence (P07382 whole entry): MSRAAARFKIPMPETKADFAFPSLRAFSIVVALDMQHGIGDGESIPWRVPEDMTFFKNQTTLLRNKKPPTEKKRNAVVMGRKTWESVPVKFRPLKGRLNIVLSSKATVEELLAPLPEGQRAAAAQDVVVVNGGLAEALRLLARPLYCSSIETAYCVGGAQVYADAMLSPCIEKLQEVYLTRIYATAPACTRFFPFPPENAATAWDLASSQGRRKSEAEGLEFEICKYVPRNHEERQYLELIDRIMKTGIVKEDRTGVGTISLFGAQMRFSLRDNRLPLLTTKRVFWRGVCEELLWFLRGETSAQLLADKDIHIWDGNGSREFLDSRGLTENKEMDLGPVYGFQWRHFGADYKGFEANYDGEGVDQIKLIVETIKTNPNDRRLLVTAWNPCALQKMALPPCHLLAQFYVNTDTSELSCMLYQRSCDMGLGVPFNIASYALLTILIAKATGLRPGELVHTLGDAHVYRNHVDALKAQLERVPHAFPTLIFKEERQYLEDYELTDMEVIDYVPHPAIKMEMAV
Procedure: as §1

[4] = biological target: T4, LmPTR1 (Leishmania major, UniProt Q01782); assay: biochemical; assay type: biochemical; conditions: NI means no inhibition at 190 μM; read-out: PTR1 Lm Ki
T4 construct: made in house
T4 sequence (Q01782 1-288): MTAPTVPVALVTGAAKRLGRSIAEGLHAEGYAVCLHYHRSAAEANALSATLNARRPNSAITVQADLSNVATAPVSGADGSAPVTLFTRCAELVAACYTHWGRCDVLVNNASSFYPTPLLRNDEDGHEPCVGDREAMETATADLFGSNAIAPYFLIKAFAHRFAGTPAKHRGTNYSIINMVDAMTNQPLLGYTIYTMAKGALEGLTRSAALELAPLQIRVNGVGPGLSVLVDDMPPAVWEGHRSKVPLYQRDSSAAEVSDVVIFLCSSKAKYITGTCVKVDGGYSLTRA
Procedure: The compounds of the invention were tested against the following enzyme library: TcPTR1, LmPTR1, LmDHFR, LcTS, EcTS, CnTS, hTS, DHFR.

[5] = biological target: TcPTR1 (Trypanosoma cruzi, UniProt O44029); assay: PTR1 enzyme inhibition (dihydrofolic acid substrate, NADPH cofactor), TcPTR1; assay type: biochemical
Chain of TcPTR1 (O44029 entry or part of it): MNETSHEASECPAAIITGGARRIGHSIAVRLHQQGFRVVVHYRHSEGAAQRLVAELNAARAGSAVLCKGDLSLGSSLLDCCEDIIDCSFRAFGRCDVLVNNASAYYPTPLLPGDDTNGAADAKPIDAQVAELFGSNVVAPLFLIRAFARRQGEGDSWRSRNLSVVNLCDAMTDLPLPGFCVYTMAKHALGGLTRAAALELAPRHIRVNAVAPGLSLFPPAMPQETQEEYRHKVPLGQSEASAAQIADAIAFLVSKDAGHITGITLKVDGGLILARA
Procedure: as §1

[6] = biological target: T5, hTS (Homo sapiens, UniProt P04818); assay: TS enzyme inhibition (standard TS assay), human TS; assay type: biochemical; conditions: NI means no inhibition at 190 μM; read-out: TS h Ki
T5 construct: made in house
T5 sequence (P04818 whole entry): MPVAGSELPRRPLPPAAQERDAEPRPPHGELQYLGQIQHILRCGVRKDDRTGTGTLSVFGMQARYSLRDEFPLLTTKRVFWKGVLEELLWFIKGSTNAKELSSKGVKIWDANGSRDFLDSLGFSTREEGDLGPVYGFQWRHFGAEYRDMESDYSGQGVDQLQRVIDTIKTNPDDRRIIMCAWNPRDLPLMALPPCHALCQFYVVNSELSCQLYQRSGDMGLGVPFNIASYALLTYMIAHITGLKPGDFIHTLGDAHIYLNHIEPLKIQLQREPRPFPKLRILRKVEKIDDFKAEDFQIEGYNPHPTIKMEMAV
Procedure: as §1

[7] = biological target: TS; assay: TS enzyme inhibition, three-value table lines (species column not resolvable); assay type: biochemical; conditions: species column (h or Lm) not resolvable; NI means no inhibition at 190 μM, NI marks ⋄ Δ ▴ undefined; read-out: TS Ki (first value of three-value lines)
[8] = system: PTR1 overexpressing lines; assay: Parasite growth inhibition, PTR1 overexpressing lines; assay type: cell-based; conditions: ratio of EC50 from PTR1 overexpressing lines to EC50 from WT lines
[9] = system: Tripanosoma cruzi amastigote form; assay: Intracellular growth of Tripanosoma cruzi amastigote form; assay type: cell-based; design: unit of the concentration uncertain; conditions: 72 h exposure, control 100
[10] = NI means no inhibition at 190 μM; read-out: TS Lm Ki
[11] = NI means no inhibition at 190 μM, read-out: DHFR h Ki
[12] = NI means no inhibition at 190 μM, read-out: PTR1 Tc Ki

T1 sequence (P07382 whole entry): as the sequence (P07382 whole entry) above

Compound | Ki [1, 10] | Ki [2, 11] | Ki [3] | Ki [4] | Ki [5, 12] | Ki [6] | also measured
COC(=O)C1CCN(C(=O)c2ccc(NCc3cnc4nc(N)nc(C)c4n3)cc2)CC1 | > 190 µM | 10 µM | 4 µM | 0.1 µM | 7 µM |  | 
O=C(O)C1CCN(C(=O)c2ccc(NCc3cnc4cccc(C(F)(F)F)c4n3)cc2)CC1 | > 190 µM | 56 µM | 40 µM | 7 µM | 75 µM | 41 µM | 
Cc1cc(C(F)(F)F)cc2nc(-c3ccccc3)c(CNc3ccc(C(=O)N4CCC(C(=O)O)CC4)cc3)nc12 | > 190 µM | 54 µM | 17 µM |  | 20 µM | 13 µM | 
CCOC(=O)c1nc2ccccc2nc1CNc1ccc(C(=O)N2CCC(C(=O)O)CC2C(=O)O)cc1 (stereo not drawn) | > 190 µM | 24 µM | 75 µM | > 190 µM | 38 µM | 15 µM | 
COC(=O)C1CCN(C(=O)c2ccc(NCc3nc4cc(C(F)(F)F)ccc4nc3-c3ccccc3)cc2)C(C(=O)OC)C1 (stereo not drawn) | > 190 µM | > 190 µM | 88 µM | > 190 µM | 40 µM | 13 µM | 
CCOC(=O)C1CCCCN1C(=O)c1ccc(NCc2cnc3ccc(C(F)(F)F)cc3n2)cc1 (stereo not drawn) | 86 µM | > 190 µM | 27 µM | 6 µM | 106 µM | 12 µM | 
COC(=O)C1CCN(C(=O)c2ccc(N(C)Cc3cnc4nc(N)nc(N)c4n3)cc2)CC1 |  |  |  |  |  |  | Ki ([1]; read-out: TS Lm Ki; NI means no inhibition at 190 μM): > 190 µM; Ki [2]: 0.8 µM
CN(Cc1cnc2nc(N)nc(N)c2n1)c1ccc(C(=O)NC(CCC(=O)O)C(=O)O)cc1 (stereo not drawn) |  |  |  |  |  |  | Ki [5]: 0.11 µM
COC(=O)C1CCN(C(=O)c2ccc(N(CCO)Cc3cnc4nc(N)nc(N)c4n3)cc2)CC1 |  |  |  |  |  |  | Ki [7]: 64.5 µM
CN(Cc1cnc2nc(N)nc(N)c2n1)c1ccc(C(=O)N[C@@H](CCC(=O)O)C(=O)O)cc1 [Mtx, methotrexate] |  |  |  |  |  |  | RDR [8]: 104.1
CCc1nc(N)nc(N)c1-c1ccc(Cl)cc1 [Pyr, pyrimetamine] |  |  |  |  |  |  | RDR [8]: 2.3; % amastigotes (medium value) ([9]; 10 (unit uncertain)): 37.4%; % amastigotes (medium value) ([9]; 20 (unit uncertain)): 26.3%

Reference: patent US20100305134A1, “SPECIFIC INHIBITORS OF PTERIDINE REDUCTASE WITH ANTIPARASITIC ACTION” (priority 2007, published 2010)
